Measurements as given in ChEMBL document CHEMBL5385882, “Rational design and appraisal of selective Cdc2-Like kinase 1 (Clk1) inhibitors as novel autophagy inducers for the treatment of acute liver injury (ALI)” (Eur J Med Chem, 2023).
Activity calls are given as the source filed them. The rule behind the calls is not given here.

Key:
[1] = target: T1, Dual specificity protein kinase CLK1 (Homo sapiens, UniProt P49759); test: Inhibition of human 130-end recombinant CLK1 assessed as remaining activity using ERMRPRKRQGSVR as substrate at 100 nM by [gamma-32P]ATP binding based scintillation counting based analysis relative to control
Target sequence in this assay (P49759 whole entry, looked up): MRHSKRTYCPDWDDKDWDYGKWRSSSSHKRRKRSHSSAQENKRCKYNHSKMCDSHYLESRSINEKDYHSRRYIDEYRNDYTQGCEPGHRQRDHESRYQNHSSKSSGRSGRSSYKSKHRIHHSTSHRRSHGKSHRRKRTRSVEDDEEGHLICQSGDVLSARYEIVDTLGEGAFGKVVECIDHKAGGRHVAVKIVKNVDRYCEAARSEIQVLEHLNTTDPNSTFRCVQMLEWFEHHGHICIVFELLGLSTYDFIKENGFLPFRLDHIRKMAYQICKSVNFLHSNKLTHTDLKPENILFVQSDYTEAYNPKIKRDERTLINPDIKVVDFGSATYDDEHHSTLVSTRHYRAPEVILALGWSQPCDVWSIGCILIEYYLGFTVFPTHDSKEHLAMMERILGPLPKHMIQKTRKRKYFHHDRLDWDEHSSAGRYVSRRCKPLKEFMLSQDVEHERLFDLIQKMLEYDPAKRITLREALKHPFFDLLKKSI

[2] = target: T2, Dual specificity tyrosine-phosphorylation-regulated kinase 1A (Homo sapiens, UniProt Q13627); test: Inhibition of human full length recombinant DYRK1A assessed as remaining activity using RRRFRPASPLRGPP as substrate at 100 nM by [gamma-32P]ATP binding based scintillation counting based analysis relative to control
[3] = target: T1, Dual specificity protein kinase CLK1; test: Inhibition of human 130-end recombinant CLK1 assessed as remaining activity using ERMRPRKRQGSVR as substrate by [gamma-32P]ATP binding based scintillation counting based analysis
Target sequence in this assay (P49759 whole entry): as the sequence (P49759 whole entry, looked up) above

[4] = target: T2, Dual specificity tyrosine-phosphorylation-regulated kinase 1A; test: Inhibition of human full length recombinant DYRK1A assessed as remaining activity using RRRFRPASPLRGPP as substrate by [gamma-32P]ATP binding based scintillation counting based analysis
[5] = species: Homo sapiens; test: Selectivity index, ratio of IC50 for inhibition of human full length recombinant DYRK1A to IC50 for inhibition of human 130-end recombinant CLK1
[6] = Metabolic stability in human liver microsomes assessed as half life at 10 uM incubated for 5 mins in the presence of NADPH-generating system by LC-MS/MS analysis; format: ADME, Microsome
[7] = Metabolic stability in human liver microsomes assessed as clearance at 10 uM incubated for 5 mins in the presence of NADPH-generating system by LC-MS/MS analysis; format: ADME, Microsome
[8] = target: Dual specificity protein kinase CLK1 (Mus musculus) (UniProt P22518); test: Inhibition of Clk1 in mouse BNL CL.2 cells assessed as redistribution of serine/arginine (SR) proteins from nucleoplasmic (active form) to nuclear speckles (storage form) at 10 uM incubated for 24 hrs by immunofluorescence assay; format: cell-based
Sequence of Dual specificity protein kinase CLK1 (Mus musculus) (P22518 whole entry, looked up): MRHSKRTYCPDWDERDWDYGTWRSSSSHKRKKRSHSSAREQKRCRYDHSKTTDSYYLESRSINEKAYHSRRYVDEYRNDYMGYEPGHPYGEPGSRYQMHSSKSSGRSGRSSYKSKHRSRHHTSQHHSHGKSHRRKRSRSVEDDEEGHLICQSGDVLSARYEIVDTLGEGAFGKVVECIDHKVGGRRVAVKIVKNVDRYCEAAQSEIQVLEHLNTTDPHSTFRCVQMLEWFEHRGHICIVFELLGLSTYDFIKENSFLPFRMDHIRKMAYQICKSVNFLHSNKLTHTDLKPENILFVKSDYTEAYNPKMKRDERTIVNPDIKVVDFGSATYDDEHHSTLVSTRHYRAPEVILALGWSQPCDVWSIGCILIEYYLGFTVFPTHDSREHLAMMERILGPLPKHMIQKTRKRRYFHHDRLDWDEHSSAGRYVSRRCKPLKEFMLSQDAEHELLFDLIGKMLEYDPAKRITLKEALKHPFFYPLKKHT

Row | Compound | Activity [1] | Activity [2] | IC50 [3] | IC50 [4] | Selectivity Index [5] | half-life at 10 µM [6] | CLH [7] | inhibition [8]
1 | c1cncc(-c2c[nH]c3ncc(NCc4ccc(N5CCOCC5)cc4)cc23)c1 | 28% | 83% | 46 nM | 1700 nM | 36.9 | – | – | –
2 | Fc1cccc(/C=N/c2cnc3[nH]cc(-c4cncc(F)c4)c3c2)c1 | 61% | 74% | 454 nM | 653 nM | – | – | – | –
3 | COc1ccc(-c2c[nH]c3ncc(NCc4cc(F)cc(F)c4)cc23)cc1 | 3% | 40% | 15 nM | 97 nM | 6.5 | – | – | –
4 | Fc1cc(F)cc(CNc2cnc3[nH]cc(-c4cccnc4)c3c2)c1 | 12% | 91% | 18 nM | 288 nM | 16 | – | – | –
5 | Fc1cc(F)cc(CNc2cnc3[nH]cc(-c4ccc(C(F)(F)F)cc4)c3c2)c1 | 80% | 108% | 458 nM | 765 nM | 1.7 | – | – | –
6 | COc1ccc(-c2cnc3ccc(NCc4cc(F)cc(F)c4)cn23)cc1 | 105% | 91% | 569 nM | 465 nM | 0.8 | – | – | –
7 | Nc1ccc(-c2c[nH]c3ncc(NCc4cc(F)cc(F)c4)cc23)cc1 | 36% | 101% | 89 nM | 561 nM | 6.3 | – | – | –
8 | COc1ccc(-c2cnc3ccc(NC4CCCC4)cn23)cc1 | 99% | 126% | – | – | – | – | – | –
9 | CCCc1ccc(-c2c[nH]c3ncc(NCc4cc(F)cc(F)c4)cc23)cc1 | 85% | 111% | – | – | – | – | – | –
10 | CC(C)c1cccc(CNc2cnc3[nH]cc(-c4cccnc4)c3c2)c1 | 16% | 108% | 23 nM | 2390 nM | 117 | – | – | –
11 | CCN(CC)c1ccc(CNc2cnc3[nH]cc(-c4cccnc4)c3c2)cc1 | 33% | 98% | 70 nM | 1560 nM | 22.4 | – | – | –
12 | O=C(Nc1cnc2[nH]cc(-c3cncc(F)c3)c2c1)c1ccco1 | 64% | 88% | 389 nM | 3010 nM | – | – | – | –
13 | CN1CCN(c2ccc(CNc3cnc4[nH]cc(-c5cccnc5)c4c3)cc2)CC1 | 9% | 85% | 13 nM | 1750 nM | 135 | – | – | –
14 | COc1ccc(-c2cnc3ccc(NCc4ccc(F)cc4)cn23)cc1 | 91% | 110% | – | – | – | – | – | –
15 | Nc1ncc(-c2c[nH]c3ncc(NCc4cc(F)cc(F)c4)cc23)cn1 | 26% | 102% | 75 nM | 590 nM | 7.8 | – | – | –
16 | O=C(Nc1cnc2[nH]cc(-c3cncc(F)c3)c2c1)c1ccc(F)cc1 | 37% | 83% | 64 nM | 2900 nM | 45.3 | > 120 min | < 12 mL/min/g | –
17 | Nc1cccc(-c2c[nH]c3ncc(NCc4cc(F)cc(F)c4)cc23)c1 | 28% | 88% | 66 nM | 389 nM | 5.9 | – | – | –
18 | Fc1ccc(/C=N/c2cnc3[nH]cc(-c4cncc(F)c4)c3c2)cc1 | 70% | 86% | 510 nM | 1350 nM | – | – | – | –
19 | O=C(Nc1cnc2[nH]cc(-c3cccnc3)c2c1)c1ccc(F)cc1 | 30% | 90% | 31 nM | 2250 nM | 72.6 | – | – | –
20 | Fc1cc(F)cc(CNc2cnc3[nH]cc(-c4cc5ccccc5s4)c3c2)c1 | 65% | 108% | 252 nM | 2210 nM | – | – | – | –

Row | Compound | Activity [1] | Activity [2] | IC50 [3] | IC50 [4] | Selectivity Index [5] | half-life at 10 µM [6] | CLH [7] | inhibition [8]
21 | O=S(=O)(Nc1cnc2[nH]cc(-c3cncc(F)c3)c2c1)c1ccc(F)cc1 | 70% | 94% | 667 nM | 3660 nM | – | – | – | –
22 | COc1cncc(-c2c[nH]c3ncc(NC(=O)c4ccc(F)cc4)cc23)c1 | 13% | 81% | 24 nM | 2060 nM | 85.8 | 115 min | 13.8 mL/min/g | –
23 | FC(F)(F)c1cccc(CNc2cnc3[nH]cc(-c4cccnc4)c3c2)c1 | 18% | 96% | 45 nM | 689 nM | 15.3 | – | – | –
24 | COc1ccc(-c2cnc3ccc(NCc4ccc(N(C)C)cc4)cn23)cc1 | 103% | 101% | – | – | – | – | – | –
25 | O=C(Nc1cnc2[nH]cc(-c3cccnc3)c2c1)c1ccc(C(F)(F)F)c(F)c1 | 45% | 87% | 89 nM | 3650 nM | 41 | – | – | –
26 | NC(=O)c1cccc(-c2c[nH]c3ncc(NCc4cc(F)cc(F)c4)cc23)c1 | 89% | 105% | 762 nM | > 5000 nM | – | – | – | –
27 | COc1cncc(-c2c[nH]c3ncc(NCc4ccc(N5CCOCC5)cc4)cc23)c1 | 16% | 85% | 30 nM | 1900 nM | 63.2 | 21.2 min | 65.4 mL/min/g | –
28 | COc1cc(Cl)ccc1C(=O)Nc1cnc2[nH]cc(-c3cccnc3)c2c1 | 17% | 84% | 25 nM | 2040 nM | 81.4 | – | – | –
29 | CC(C)(C)c1cccc(CNc2cnc3[nH]cc(-c4cccnc4)c3c2)c1 | 27% | 103% | 45 nM | 988 nM | 21.9 | – | – | –
30 | COc1cc(Cl)ccc1C(=O)Nc1cnc2[nH]cc(-c3cncc(F)c3)c2c1 | 20% | 92% | 66 nM | 3990 nM | 60.5 | > 120 min | < 12 mL/min/g | –
31 | COc1cncc(-c2c[nH]c3ncc(NCc4cc(F)cc(F)c4)cc23)c1 | 9% | 81% | 16 nM | 1320 nM | 82.7 | 32.1 min | 88.7 mL/min/g | –
32 | COc1cncc(-c2c[nH]c3ncc(NCc4ccc(F)cc4)cc23)c1 | 6% | 88% | 15 nM | 2330 nM | 156 | 20.3 min | 76.8 mL/min/g | –
33 | Nc1ccc(-c2cnc3[nH]cc(-c4ccc(O)cc4)c3c2)cc1 | – | – | 34 nM | – | 1.3 | – | – | Active
34 | CN1CCN(c2ccc(CNc3cnc4[nH]cc(-c5cncc(F)c5)c4c3)cc2)CC1 | 19% | 99% | 42 nM | 5970 nM | 142 | 17.5 min | 79.2 mL/min/g | –
35 | O=C(Nc1cc(C(F)(F)F)cc(C(F)(F)F)c1)Nc1cnc2[nH]cc(-c3cncc(F)c3)c2c1 | 88% | 106% | 1870 nM | 5680 nM | – | – | – | –
36 | Fc1cc(F)cc(CNc2cnc3[nH]cc(C4=CCCCC4)c3c2)c1 | 74% | 99% | 324 nM | 2460 nM | – | – | – | –
37 | Fc1cc(F)cc(CNc2cnc3[nH]cc(-c4ccc5ccccc5c4)c3c2)c1 | 80% | 106% | 476 nM | > 5000 nM | – | – | – | –
38 | Fc1cccc(CNc2cnc3[nH]cc(-c4cccnc4)c3c2)c1 | 4% | 98% | 15 nM | 475 nM | 31.6 | – | – | –
39 | COc1cncc(-c2c[nH]c3ncc(NC(=O)c4ccc(Cl)cc4OC)cc23)c1 | 8% | 95% | 5 nM | 3500 nM | 700 | 101 min | 15 mL/min/g | –
40 | COc1cncc(-c2c[nH]c3ncc(NCc4cccc(F)c4)cc23)c1 | 2% | 89% | 17 nM | 2030 nM | 119 | 19.5 min | 80.4 mL/min/g | –
